Measurements taken from article PMC9184688, “α-Glucosidase inhibitive diarylheptanoids from Ottelia acuminata var. acuminata, a traditional vegetable of Bai Nationality in Yunnan” (Natural Products and Bioprospecting, 2022).
Marks after values point to notes of the source that are not given here.

Tests used:
PTP1B = molecular target: T1, PTP1B (Homo sapiens, UniProt P18031); assay: PTP1B inhibitory assay (phosphate-based detection reagent, absorbance at 620 nm); format: biochemical; settings: means ± SD (n = 3)
T1 construct: purchased Sigma Chemical (Merck KGaA, Darmstadt, Germany)
T1 sequence (P18031 1-322 limits assumed): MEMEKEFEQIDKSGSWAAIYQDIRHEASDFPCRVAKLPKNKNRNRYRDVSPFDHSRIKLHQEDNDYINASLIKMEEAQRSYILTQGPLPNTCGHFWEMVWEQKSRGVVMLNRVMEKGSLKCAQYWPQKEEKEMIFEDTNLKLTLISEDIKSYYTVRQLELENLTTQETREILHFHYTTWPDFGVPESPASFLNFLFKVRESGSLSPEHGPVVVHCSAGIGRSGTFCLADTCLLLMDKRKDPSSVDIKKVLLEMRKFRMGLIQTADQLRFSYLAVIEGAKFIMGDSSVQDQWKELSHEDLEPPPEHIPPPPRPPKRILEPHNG
Procedure: IR spectra were measured on a Bruker FT-IR Tensor-27 infrared spectrophotometer with KBr disks. Optical rotations were recorded on a JASCO P-1020 polarimeter. UV spectra were obtained with a Shimadzu UV-2401PC spectrometer. 1D and 2D NMR spectra were performed on a Bruker DRX-600 spectrometer using TMS as an internal standard. The chemical shifts (δ) were expressed in ppm with reference to the solvent signals. HREIMS and HRESIMS analysis were obtained from Waters Xevo TQS and Agilent G6230 TOF mass spectrometers, respectively. […] Semi-preparative HPLC was performed on a Waters 1525 HPLC with a ZORBAX SB-C18 (9.4 × 250 mm) column. Silica gel (100–200 and 200–300 mesh, Qingdao Marine Chemical Co., Ltd., People’s Republic of China), and MCI gel (75–150 μm, Mitsubishi Chemical Corporation, Tokyo, Japan) were used for column chromatography. Fractions were monitored by TLC (GF 254, Qingdao Marine Chemical Co., Ltd.), and spots were visualized by heating silica gel plates immersed in 10% H2SO4 in ethanol. Methanol (HPLC grade) and acetonitrile (HPLC grade) was purchased from CINC High Purity Solvents Co., Ltd (Shanghai, China).
The α-glucosidase and PTB1B inhibitory activity were conducted according to the previous reports with slight modifications. […] While in the PTB1B inhibitory assay, after addition of phosphate-based detection reagent then incubation at 30 °C for 20 min, and absorbance was measured at 620 nm and suramin was used as positive control. The inhibition percentage was calculated as follows: inhibition rate (%) = (E – S)/E × 100% (E is the OD of the control and S is the OD of the sample) and IC50 (50% concentration of inhibition) was calculated by Reed and Muench method.

α-glucosidase = α-glucosidase (Saccharomyces cerevisiae, UniProt P53341); assay: α-glucosidase inhibitory assay (PNPG, absorbance at 405 nm); format: biochemical; settings: at a concentration of 50 μM; means ± SD (n = 3); read-out: α-Glucosidase Inhibition ratio (%)
Procedure: The α-glucosidase and PTB1B inhibitory activity were conducted according to the previous reports with slight modifications [49, 50]. […] The inhibition percentage was calculated as follows: inhibition rate (%) = (E – S)/E × 100% (E is the OD of the control and S is the OD of the sample) and IC50 (50% concentration of inhibition) was calculated by Reed and Muench method.

[1] = test concentration of the compounds not given

Sequence of α-glucosidase (P53341 whole entry): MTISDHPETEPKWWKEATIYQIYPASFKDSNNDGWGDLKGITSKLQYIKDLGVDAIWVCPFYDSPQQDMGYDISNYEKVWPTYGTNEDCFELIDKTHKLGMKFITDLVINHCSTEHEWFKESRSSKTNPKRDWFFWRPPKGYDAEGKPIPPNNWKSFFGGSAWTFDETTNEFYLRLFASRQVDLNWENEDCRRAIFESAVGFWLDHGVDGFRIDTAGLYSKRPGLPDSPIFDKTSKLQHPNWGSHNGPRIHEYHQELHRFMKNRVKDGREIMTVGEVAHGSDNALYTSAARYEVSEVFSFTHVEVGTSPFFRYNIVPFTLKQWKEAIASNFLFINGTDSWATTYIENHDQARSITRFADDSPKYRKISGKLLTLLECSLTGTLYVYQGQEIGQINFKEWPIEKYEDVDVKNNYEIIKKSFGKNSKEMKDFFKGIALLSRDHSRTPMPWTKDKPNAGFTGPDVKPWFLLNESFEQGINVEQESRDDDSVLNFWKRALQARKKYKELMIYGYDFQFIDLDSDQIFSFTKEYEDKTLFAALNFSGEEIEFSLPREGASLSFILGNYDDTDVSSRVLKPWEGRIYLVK

| SMILES | PTP1B inhibition ratio (%) (PTP1B; [1]) | inhibition at 50 µM (α-glucosidase) [%] | PTP1B inhibition ratio (%) (PTP1B; at a concentration of 20 μM, positive control) |
| --- | --- | --- | --- |
| Oc1ccc(C/C=C/C=C\CCc2ccc(O)cc2)cc1 [Compound 5, Otteacumiene E] | -0.28 ± 1.89 |  |  |
| Cc1ccc(C(=O)Nc2ccc(S(=O)(=O)O)c3cc(S(=O)(=O)O)cc(S(=O)(=O)O)c23)cc1NC(=O)c1cccc(NC(=O)Nc2cccc(C(=O)Nc3cc(C(=O)Nc4ccc(S(=O)(=O)O)c5cc(S(=O)(=O)O)cc(S(=O)(=O)O)c45)ccc3C)c2)c1 [Suramin, suramin, reference compound] |  |  | 84.11 ± 0.42^d % |
| COc1ccc(CC/C=C\C=C\Cc2ccc(O)cc2)cc1 [Compound 6, Otteacumiene F] | -12.94 ± 2.98 |  |  |
| COc1ccc(/C=C/C/C=C/CCc2ccc(OC)cc2)cc1 [Compound 7, (1E,4E)-1,7-di(4-methoxyphenyl)-1,4-heptadiene] | -26.62 ± 2.28 |  |  |

Other lines, results leading:

| PTP1B inhibition ratio (%) (PTP1B; [1]) | inhibition at 50 µM (α-glucosidase) [%] | PTP1B inhibition ratio (%) (PTP1B; at a concentration of 20 μM, positive control) | SMILES |
| --- | --- | --- | --- |
| 10.37 ± 2.17 |  |  | O=C1C/C=C/CCc2ccc(O)c(c2)-c2cc(ccc2O)C1 [Compound 4, Otteacumiene D] |
| -9.47 ± 2.28 | 38.3 ± 1.79 |  | Oc1ccc2cc1Oc1ccc(cc1)CC=CC=CC(O)C2 (centres unmarked) [Compound 1, Otteacumiene A] |
| 19.07 ± 0.85 |  |  | COC1c2ccc(O)c(c2)Oc2ccc(cc2)CCC=CCC1O (centres unmarked) [Compound 3, Otteacumiene C] |
| 11.32 ± 2.03 | 43.98 ± 0.43 |  | Oc1ccc2cc1Oc1ccc(cc1)C[C@H](O)/C=C\C=C\C2 [Compound 2, Otteacumiene B] |
| -3.47 ± 1.21 |  |  | Oc1ccc2cc1Oc1ccc(cc1)CC/C=C\C=C\C2 [Compound 8, tedarenes A] |
